The text below walks through data of patent publication US20130295185A1, “COMPOUNDS AND METHODS FOR INDUCING APOPTOSIS IN CANCER CELLS USING A BH3 ALPHA-HELICAL MIMETIC” (H. Lee Moffitt Cancer Center and Research Institute, Inc., priority 2011, published 2013).

Series [1] deals with BH3 binding groove of Bcl-2, Bcl-XL, and Bcl-w. The settings on record: cited from earlier work.
The test system of the next series is Mcl-1 and Bfl-1. Conditions: cited from earlier work.
The subject of series [2] is wild-type and Bax/Bak-deficient fibroblasts. Conditions: cited from earlier work.
A further series has as its system A549 cells. Briefly: BH3-M6 and CEP-1612 alone or in combination in A549 cells (MTT, TUNEL, PARP cleavage). The format is cell-based, human. As to the method:
FIG. 7 is a series of images illustrating BH3-M6 sensitizes A549 cells to the proteasome inhibitor CEP-1612 to induce apoptosis. A549 cells were treated with the indicated concentrations of either drug alone or in combination and then processed for various assays as described in EXPERIMENTAL PROCEDURES. (A) Cell viability as measured by MTT assay after 72 h of treatment, error bars indicate standard deviations of triplicates. (B) apoptosis as determined by TUNEL assay after 48 h of treatment. (C) PARP cleavage after 24 hours of drug treatment.
Release of cytochrome c from isolated mitochondria was measured as described by Takahashi et al. (Takahashi, Y., Karbowski, M., Yamaguchi, H., Kazi, A., Wu, J., Sebti, S. M., Youle, R. J., and Wang, H. G. (2005) Mol Cell Biol 25, 9369-9382) Cell-free caspase-3/-7 activity and the extent of PARP cleavage was determined as described previously. (Kazi, A., Smith, D. M., Zhong, Q., and Dou, Q. P. (2002) Mol Pharmacol 62, 765-771) MTT (3-(4,5-dimethylthiazol-2-yl)-2,5-diphenyltetrazolium bromide) and TUNEL assays were performed according to Kazi et al., both of which are incorporated herein by reference. (Kazi, A., Lawrence, H., Guida, W. C., McLaughlin, M. L., Springett, G. M., Berndt, N., Yip, R. M. L., and Sebti, S. M. (2009) Cell Cycle 8, 1940-1951)
To determine whether BH3-M6 sensitizes cells to apoptosis induced by other stimuli, the inventors treated A549 cells with BH3-M6 and CEP-1612 (Sun, J., Nam, S., Lee, C. S., Li, B., Coppola, D., Hamilton, A. D., Dou, Q. P., and Sebti, S. M. (2001) Cancer Res 61, 1280-1284), either alone or in combination. BH3-M6 and CEP-1612 alone had little effect on cell viability (about 20% and about 28%, respectively) (FIG. 7A) and apoptosis (about 5% and about 8%, respectively) (FIG. 7B). […] The results from FIG. 7C were obtained after about 24 hours of drug treatment, whereas those from FIG. 5C were obtained after about 48 hours of drug treatment.

Structures are written as SMILES.

Turning to `CN(C)CC[C@H](CSc1ccccc1)Nc1ccc(S(=O)(=O)NC(=O)c2ccc(N3CCN(Cc4ccccc4-c4ccc(Cl)cc4)CC3)cc2)cc1[N+](=O)[O-]` [ABT-737], in series [1], the “affinity for BH3 binding groove of Bcl-2, Bcl-XL, and Bcl-w” value was “high affinity”. The “binding to Mcl-1 and Bfl-1” value in the series on Mcl-1 and Bfl-1 is “only binds weakly”. For the same compound, the “killing of wild-type vs Bax/Bak-deficient cells” value in series [2] was “kills only wild-type, but not Bax/Bak-deficient cells”.
For the compound `CC(C)C[C@@H](C=O)NC(=O)[C@H](CCCN=C(N)N[N+](=O)[O-])NC(=O)C(CCCCCCCCN1C(=O)c2ccccc2C1=O)C1CCCC1` (stereo partly drawn) [CEP-1612], the “inhibition of cell viability” value with A549 cells (A549, MTT, 72 h) is reported as “about 28%”. Moreover, the induction of apoptosis entry with A549 cells (A549, TUNEL, 48 h) is reported as “about 8%”. For the same compound, the PARP cleavage entry in the series on A549 cells (A549, immunoblot, about 24 hours) is given as “but not either drug alone”.
